# Results reported in ChEMBL document CHEMBL1155741, “Ellagitannins and hexahydroxydiphenoyl esters as inhibitors of vertebrate squalene epoxidase” (J Nat Prod, 2001).
# Target: T1, Squalene monooxygenase (Rattus norvegicus, UniProt P52020)
# Assay: Inhibition of C-terminal hexahistidine-tagged rat recombinant squalene epoxidase without N-terminal putative membrane domain expressed in Escherichia coli
# T1 sequence (P52020 whole entry, the tested form may be a part): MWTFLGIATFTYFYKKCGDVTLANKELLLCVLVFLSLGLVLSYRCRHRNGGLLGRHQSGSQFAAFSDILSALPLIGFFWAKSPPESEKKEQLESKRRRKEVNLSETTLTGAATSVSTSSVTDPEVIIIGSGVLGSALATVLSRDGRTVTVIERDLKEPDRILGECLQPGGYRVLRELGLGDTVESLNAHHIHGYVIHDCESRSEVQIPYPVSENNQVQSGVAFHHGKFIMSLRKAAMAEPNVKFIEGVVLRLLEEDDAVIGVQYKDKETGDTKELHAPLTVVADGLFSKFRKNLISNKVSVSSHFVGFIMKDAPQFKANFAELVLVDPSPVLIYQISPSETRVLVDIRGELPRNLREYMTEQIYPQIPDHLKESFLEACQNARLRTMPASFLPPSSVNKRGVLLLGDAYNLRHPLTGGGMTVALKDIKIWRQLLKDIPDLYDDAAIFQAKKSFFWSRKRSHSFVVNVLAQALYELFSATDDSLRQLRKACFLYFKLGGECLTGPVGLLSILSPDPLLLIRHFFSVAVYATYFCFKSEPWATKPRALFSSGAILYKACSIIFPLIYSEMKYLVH
row,SMILES,IC50
1,O=C(O[C@@H]1O[C@@H]2COC(=O)c3cc(O)c(O)c(O)c3-c3c(O)c(O)c(O)c(Oc4cc(C(=O)O[C@@H]5O[C@@H]6COC(=O)c7cc(O)c(O)c(O)c7-c7c(cc(O)c(O)c7O)C(=O)O[C@H]6[C@@H]6OC(=O)c7cc(O)c(O)c(O)c7-c7cc(O)c(O)c(O)c7C(=O)O[C@@H]56)cc(O)c4O)c3C(=O)O[C@H]2[C@@H]2OC(=O)c3cc(O)c(O)c(O)c3-c3c(cc(O)c(O)c3O)C(=O)O[C@@H]12)c1cc(O)c(O)c(O)c1,12 µM
2,COC(=O)c1cc(O)c(O)c(O)c1-c1c(C(=O)OC)cc(O)c(O)c1O,16.4 µM
3,CCCCCCCCCCCCCCCCCCOC(=O)c1cc(O)c(O)c(O)c1-c1c(C(=O)OCCCCCCCCCCCCCCCCCC)cc(O)c(O)c1O,47 µM
4,CCCCCCCCCCCCCCCCOC(=O)c1cc(O)c(O)c(O)c1-c1c(C(=O)OCCCCCCCCCCCCCCCC)cc(O)c(O)c1O,2.5 µM
5,CCCCCCCCCCCCCCOC(=O)c1cc(O)c(O)c(O)c1-c1c(C(=O)OCCCCCCCCCCCCCC)cc(O)c(O)c1O,1.5 µM
6,O=C(O[C@@H]1O[C@@H]2COC(=O)c3cc(O)c(O)c(O)c3-c3c(cc(O)c(O)c3O)C(=O)O[C@H]2[C@@H]2OC(=O)c3cc(O)c(O)c(O)c3-c3c(cc(O)c(O)c3O)C(=O)O[C@@H]12)c1cc(O)c(O)c(O)c1,7 µM
7,CCCCCCCCCCCCOC(=O)c1cc(O)c(O)c(O)c1-c1c(C(=O)OCCCCCCCCCCCC)cc(O)c(O)c1O,1.3 µM
8,CCCCCCCCCCOC(=O)c1cc(O)c(O)c(O)c1-c1c(C(=O)OCCCCCCCCCC)cc(O)c(O)c1O,1.1 µM
9,O=C1O[C@H]2[C@H](O)[C@@H](CO)OC(O)[C@@H]2OC(=O)c2cc(O)c(O)c(O)c2-c2c1cc(O)c(O)c2O (some centres undefined),32 µM
10,CCCCOC(=O)c1cc(O)c(O)c(O)c1-c1c(C(=O)OCCCC)cc(O)c(O)c1O,7.9 µM
11,CCCCCCOC(=O)c1cc(O)c(O)c(O)c1-c1c(C(=O)OCCCCCC)cc(O)c(O)c1O,0.93 µM
12,CCCCCCCCOC(=O)c1cc(O)c(O)c(O)c1-c1c(C(=O)OCCCCCCCC)cc(O)c(O)c1O,0.83 µM
13,CCOC(=O)c1cc(O)c(O)c(O)c1-c1c(C(=O)OCC)cc(O)c(O)c1O,13.3 µM
14,O=C1OC[C@H]2OC(=O)c3cc(O)c(O)c(O)c3-c3c(O)c(O)c(O)c4c3C(=O)O[C@H]([C@H]3OC(=O)c5c-4c(O)c(O)c(O)c5[C@H]3O)[C@@H]2OC(=O)c2cc(O)c(O)c(O)c2-c2c1cc(O)c(O)c2O [CASTALAGIN],30 µM
15,O=C(O[C@@H]1COC(=O)c2cc(O)c(O)c(O)c2-c2c(cc(O)c(O)c2O)C(=O)O[C@H]1[C@@H]1OC(=O)c2cc(O)c(O)c(O)c2-c2c(O)c(O)c(O)c3c2C(=O)O[C@H]1[C@@H]3O)c1cc(O)c(O)c(O)c1 [CASUARININ],34 µM
16,O=C(O)C[C@@H]1C(=O)O[C@H]2[C@@H]3OC(=O)c4cc(O)c(O)c(O)c4-c4c(cc(O)c(O)c4O)C(=O)OC[C@H]2O[C@@H](OC(=O)c2cc(O)c(O)c(O)c2)[C@@H]3OC(=O)c2cc(O)c(O)c3c2[C@H]1[C@H](O)C(=O)O3 [CHEBULAGIC ACID],3.2 µM
17,O=C(O)C[C@H]1C(=O)O[C@H]2[C@H](OC(=O)c3cc(O)c(O)c(O)c3)[C@@H](OC(=O)c3cc(O)c(O)c4c3[C@H]1[C@H](O)C(=O)O4)[C@H](OC(=O)c1cc(O)c(O)c(O)c1)O[C@@H]2COC(=O)c1cc(O)c(O)c(O)c1 [CHEBULINIC ACID],12 µM

row,SMILES,IC50
1,O=C(O[C@@H]1O[C@@H]2COC(=O)c3cc(O)c(O)c(O)c3-c3c(cc(O)c(O)c3O)C(=O)O[C@H]([C@H]1O)[C@@H]2O)c1cc(O)c(O)c(O)c1 [CORILAGIN],4 µM
2,O=c1oc2c(O)c(O)cc3c(=O)oc4c(O)c(O)cc1c4c23 [ELLAGIC ACID],2 µM
3,CCOC(=O)c1cc(O)c(O)c(O)c1 [ETHYLGALLATE],4.2 µM
4,O=C(O[C@@H]1O[C@@H]2COC(=O)c3cc(O)c(O)c(O)c3-c3c(cc(O)c(O)c3O)C(=O)O[C@H]2[C@H](OC(=O)c2cc(O)c(O)c(O)c2)[C@H]1OC(=O)c1cc(O)c(O)c(O)c1)c1cc(O)c(O)c(O)c1 [EUGENIIN],1.6 µM
5,O=C1O[C@H]2[C@H](O)[C@@H](OC(=O)c3cc(O)c(O)c4c3[C@@H]3C1=CC(=O)C(O)(O)C3(O)O4)[C@H](OC(=O)c1cc(O)c(O)c(O)c1)O[C@@H]2CO (some centres undefined) [FUROSIN],10 µM
6,O=C(O)c1cc(O)c(O)c(O)c1 [GALLIC ACID],73 µM
7,O=C1O[C@H]2[C@@H]3OC(=O)c4cc(O)c(O)c(O)c4-c4c(cc(O)c(O)c4O)C(=O)OC[C@H]2O[C@@H](OC(=O)c2cc(O)c(O)c(O)c2)[C@@H]3OC(=O)c2cc(O)c(O)c3c2[C@@H]2C1=CC(=O)[C@](O)(O3)C2(O)O [GERANIIN],4.1 µM
8,CCCCCCCCCCCCCCCCOC(=O)c1cc(O)c(O)c(O)c1 [HEXADECYL GALLATE],0.59 µM
9,O=C(O[C@@H]1O[C@@H]2COC(=O)c3cc(O)c(O)c(O)c3-c3c(cc(Oc4c(C(=O)O)cc(O)c(O)c4O)c(O)c3O)C(=O)O[C@H]([C@H]1O)[C@@H]2O)c1cc(O)c(O)c(O)c1 [MALLOTINIC ACID],8 µM
10,O=C1O[C@H]2[C@@H]3OC(=O)c4cc(Oc5c(C(=O)O)cc(O)c(O)c5O)c(O)c(O)c4-c4c(cc(O)c(O)c4O)C(=O)OC[C@H]2O[C@@H](OC(=O)c2cc(O)c(O)c(O)c2)[C@@H]3OC(=O)c2cc(O)c(O)c3c2[C@@H]2C1=CC(=O)[C@](O)(O3)C2(O)O [MALLOTUSINIC ACID],8 µM
11,CCCCCCCCOC(=O)c1cc(O)c(O)c(O)c1 [OCTYL_GALLATE],0.83 µM
12,O=C1OC[C@H]2OC(O)[C@@H]3OC(=O)c4cc(O)c(O)c(O)c4-c4c(cc(O)c(O)c4O)C(=O)O[C@H]3[C@@H]2OC(=O)c2cc(O)c(O)c(O)c2-c2c1cc(O)c(O)c2O (some centres undefined) [PEDUNCULAGIN],2 µM
13,O=C(OC[C@H]1O[C@@H](OC(=O)c2cc(O)c(O)c(O)c2)[C@H](OC(=O)c2cc(O)c(O)c(O)c2)[C@@H](OC(=O)c2cc(O)c(O)c(O)c2)[C@@H]1OC(=O)c1cc(O)c(O)c(O)c1)c1cc(O)c(O)c(O)c1 [PENTAGALLOYL GLUCOSE],0.47 µM
14,O=C(OC[C@H]1O[C@@H](OC(=O)c2cc(O)c(O)c(O)c2)[C@H](OC(=O)c2cc(O)c(O)c(O)c2)[C@@H](OC(=O)c2cc(O)c(O)c(O)c2)[C@@H]1OC(=O)c1cc(O)c(O)c(O)c1Oc1cc2c(c(O)c1O)-c1c(cc(O)c(O)c1O)C(=O)O[C@H]1[C@H](OC(=O)c3cc(O)c(O)c(O)c3)[C@@H](OC(=O)c3cc(O)c(O)c(O)c3)[C@H](OC(=O)c3cc(O)c(O)c(O)c3)O[C@@H]1COC2=O)c1cc(O)c(O)c(O)c1 [PHYLLYRAEOIDIN],100 µM
15,O=C1O[C@@H]2[C@@H](OC(=O)c3cc(O)c(O)c(O)c3-c3c1cc(O)c(O)c3O)[C@H](O)O[C@@H]1COC(=O)c3cc(O)c(O)c(O)c3-c3c(O)c(O)c4oc(=O)c5c(c(O)c(O)c6oc(=O)c3c4c65)-c3c(cc(O)c(O)c3O)C(=O)O[C@@H]21 [PUNICALAGIN],40 µM
16,O=C1OC[C@H]2O[C@@H](O)[C@H](O)[C@@H](O)[C@@H]2OC(=O)c2cc(O)c(O)c(O)c2-c2c(O)c(O)c3oc(=O)c4c(c(O)c(O)c5oc(=O)c2c3c54)-c2c1cc(O)c(O)c2O [PUNICALIN],20 µM

# Target: Squalene epoxidase (Sus scrofa, UniProt A7L861)
# Sequence (A7L861 whole entry): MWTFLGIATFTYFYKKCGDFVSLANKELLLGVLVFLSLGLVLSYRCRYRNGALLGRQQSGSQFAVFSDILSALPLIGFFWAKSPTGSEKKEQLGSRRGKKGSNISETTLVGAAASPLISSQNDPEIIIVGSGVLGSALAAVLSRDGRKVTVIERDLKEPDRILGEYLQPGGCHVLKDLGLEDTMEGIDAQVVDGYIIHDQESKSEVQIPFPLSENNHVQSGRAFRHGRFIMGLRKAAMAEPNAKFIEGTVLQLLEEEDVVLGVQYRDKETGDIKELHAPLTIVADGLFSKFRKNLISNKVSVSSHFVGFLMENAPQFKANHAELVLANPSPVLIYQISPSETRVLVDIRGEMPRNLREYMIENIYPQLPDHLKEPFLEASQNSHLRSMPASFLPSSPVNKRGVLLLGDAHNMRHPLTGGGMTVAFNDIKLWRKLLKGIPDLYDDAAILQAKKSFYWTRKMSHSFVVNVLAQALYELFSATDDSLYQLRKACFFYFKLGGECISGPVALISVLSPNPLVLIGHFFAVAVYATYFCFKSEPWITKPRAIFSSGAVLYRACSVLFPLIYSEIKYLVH
# Assay: Inhibition of pig squalene epoxidase
row,SMILES,IC50
1,CC(C)=CCC/C(C)=C/CC/C(C)=C/CC/C=C(\C)CC/C=C(\C)CCCO [TRISNORSQUALENE ALCOHOL],4 µM
2,CC(C)=CCC/C(C)=C/CC/C(C)=C/CC/C=C(\C)CC/C=C(\C)CCCNC1CC1 [TRISNORSQUALENE CYCLOPROPYLAMINE],2 µM

# Target: T1, Squalene monooxygenase
# Assay: Inhibition of rat squalene epoxidase
row,SMILES,IC50
1,O=C(O[C@@H]1[C@@H](c2c(O)cc(O)c3c2O[C@H](c2ccc(O)c(O)c2)[C@H](OC(=O)c2cc(O)c(O)c(O)c2)C3)c2c(O)cc(O)cc2O[C@@H]1c1ccc(O)c(O)c1)c1cc(O)c(O)c(O)c1,0.54 µM
2,O=C(OC[C@H]1O[C@@H](OC(=O)c2cc(O)c(O)c(O)c2)[C@H](OC(=O)c2cc(O)c(O)c(O)c2)[C@@H](O)[C@@H]1O)c1cc(O)c(O)c(O)c1,0.63 µM
3,O=C(O[C@@H]1Cc2c(O)cc(O)cc2O[C@@H]1c1cc(O)c(O)c(O)c1-c1c([C@H]2Oc3cc(O)cc(O)c3C[C@H]2OC(=O)c2cc(O)c(O)c(O)c2)cc(O)c(O)c1O)c1cc(O)c(O)c(O)c1 [THEASINENSIN A],0.13 µM
4,CC(C)=CCC/C(C)=C/CC/C(C)=C/CC/C=C(\C)CC/C=C(\C)CCC=C(F)F [TRISNORSQUALENE DIFLUOROMETHYLIDENE],5.4 µM
